From patent US20250366503A1, “NOVEL GLUCOPYRANOSIDE COMPOSITIONS FOR SWEETNESS ENHANCEMENT” (International Flavors & Fragrances Inc., priority 2022, published 2025)

Test: Sweetness enhancement of sucrose by isolated compounds (flavor profile)
Conditions: for Flavor Profile: 6% sucrose in water; for Sweetness and sugary mouthfeel enhancement: summary statement; for Enhancement of the sweetness of sweetness modifiers: general statement
Description: A sucrose solution (6%) was prepared in water and used as the base solution. Sucrose solutions of lipedoside B-IIIb, ligurobustoside E, ligurobustoside C, CPD5, ligurobustoside K ligurobustoside I and CPD6 were each prepared at 0.1-2 ppm. Flavor profiles of the sucrose solutions with added lipedoside B-IIIb, ligurobustoside E, ligurobustoside C, CPD5, ligurobustoside K and CPD6 are reported in the following: […]

Molecule	Flavor Profile (compound 2 ppm)	Sweetness and sugary mouthfeel enhancement	Enhancement of the sweetness of sweetness modifiers	Flavor Profile (compound 0.1 ppm)	Flavor Profile (compound 1 ppm)
C/C(=C\CO[C@@H]1O[C@H](CO)[C@@H](OC(=O)/C=C/c2ccc(O)cc2)[C@H](O[C@@H]2O[C@@H](C)[C@H](O)[C@@H](O)[C@H]2O)[C@H]1O)C/C=C\C(C)(C)O [ligurobustoside I]	Weak sweetness and mouthfeel enhancement	mild sweetness and sugary mouthfeel enhancement	–	–	–
C=CC(C)(CCC=C(C)C)O[C@@H]1O[C@H](CO)[C@@H](OC(=O)/C=C/c2ccc(O)c(O)c2)[C@H](O[C@@H]2O[C@@H](C)[C@H](O)[C@@H](O)[C@H]2O)[C@H]1O (stereo partly drawn) [CPD5, (2R,3R,4R,5R,6S)-6-((3,7-dimethylocta-1,6-dien-3-yl)oxy)-5-hydroxy-2-(hydroxymethyl)-4-(((2S,3R,4R,5R,6S)-3,4,5-trihydroxy-6-methyltetrahydro-2H-pyran-2-yl)oxy)tetrahydro-2H-pyran-3-yl (E)-3-(3,4-dihydroxyphenyl)acrylate]	Moderate sweetness and mouthfeel enhancement	–	enhance the sweetness of sweetness modifiers without undesirable off-notes	–	–
CC(C)=CCC/C(C)=C/CO[C@@H]1O[C@H](COC(=O)/C=C/c2ccc(O)cc2)[C@@H](O)[C@H](O[C@@H]2O[C@@H](C)[C@H](O)[C@@H](O)[C@H]2O)[C@H]1O [Ligurobustoside E, ligurobustoside E]	–	particularly strong sweetness and sugary mouthfeel enhancement	enhance the sweetness of sweetness modifiers without undesirable off-notes	Sweetness enhancement, lingering sweetness	Upfront sweetness, lingering sweetness
lipedoside B-IIIb	Strong upfront sweetness and sugary mouthfeel	particularly strong sweetness and sugary mouthfeel enhancement	enhance the sweetness of sweetness modifiers without undesirable off-notes	Slight sweetness enhancement, lingering sweetness	Sweetness enhancement, lingering sweetness
CC(C)=CCC/C(C)=C/CO[C@@H]1O[C@H](CO)[C@@H](OC(=O)/C=C/c2ccc(O)cc2)[C@H](O[C@@H]2O[C@@H](C)[C@H](O)[C@@H](O)[C@H]2O)[C@H]1O [Ligurobustoside C, ligurobustoside C]	Some upfront sweetness and mouthfeel enhancement	–	enhance the sweetness of sweetness modifiers without undesirable off-notes	–	–
ligurobustoside K	Weak sweetness and mouthfeel enhancement	mild sweetness and sugary mouthfeel enhancement	–	–	–
CC(C)=CC(=O)/C=C(\C)CCO[C@@H]1O[C@H](CO)[C@@H](OC(=O)/C=C/c2ccc(O)cc2)[C@H](O[C@@H]2O[C@@H](C)[C@H](O)[C@@H](O)[C@H]2O)[C@H]1O [CPD6, (2R,3R,4R,5R,6R)-6-(((E)-3,7-dimethyl-5-oxoocta-3,6-dien-1-yl)oxy)-5-hydroxy-2-(hydroxymethyl)-4-(((2S,3R,4R,5R,6S)-3,4,5-trihydroxy-6-methyltetrahydro-2H-pyran-2-yl)oxy)tetrahydro-2H-pyran-3-yl (E)-3-(4-hydroxyphenyl)acrylate]	Weak lingering sweetness and mouthfeel enhancement	mild sweetness and sugary mouthfeel enhancement	–	–	–
